# In patent publication US6495514B1, “Method for reducing inflammation and inducing an analgesic effect and compounds thereof” (Mercer University, priority 1998, dated 2002):
# Marks after values point to notes of the source that are not given here.
# Tests used:
# [1] = molecular target: T1, peptidylglycine α-monooxygenase (PAM) (Rattus norvegicus, UniProt P14925); experiment: Serum PAM activity after PBA dosing in rats; assay type: in vivo; conditions: for inhibition at 500 mg/kg: rat, sc
# T1 construct: 50 μl of serum sample (enzyme source) was added to 200 μl of the assay mixture; from tissue; host or cells: rat serum (tail vein blood)
# T1 sequence (P14925 36-976): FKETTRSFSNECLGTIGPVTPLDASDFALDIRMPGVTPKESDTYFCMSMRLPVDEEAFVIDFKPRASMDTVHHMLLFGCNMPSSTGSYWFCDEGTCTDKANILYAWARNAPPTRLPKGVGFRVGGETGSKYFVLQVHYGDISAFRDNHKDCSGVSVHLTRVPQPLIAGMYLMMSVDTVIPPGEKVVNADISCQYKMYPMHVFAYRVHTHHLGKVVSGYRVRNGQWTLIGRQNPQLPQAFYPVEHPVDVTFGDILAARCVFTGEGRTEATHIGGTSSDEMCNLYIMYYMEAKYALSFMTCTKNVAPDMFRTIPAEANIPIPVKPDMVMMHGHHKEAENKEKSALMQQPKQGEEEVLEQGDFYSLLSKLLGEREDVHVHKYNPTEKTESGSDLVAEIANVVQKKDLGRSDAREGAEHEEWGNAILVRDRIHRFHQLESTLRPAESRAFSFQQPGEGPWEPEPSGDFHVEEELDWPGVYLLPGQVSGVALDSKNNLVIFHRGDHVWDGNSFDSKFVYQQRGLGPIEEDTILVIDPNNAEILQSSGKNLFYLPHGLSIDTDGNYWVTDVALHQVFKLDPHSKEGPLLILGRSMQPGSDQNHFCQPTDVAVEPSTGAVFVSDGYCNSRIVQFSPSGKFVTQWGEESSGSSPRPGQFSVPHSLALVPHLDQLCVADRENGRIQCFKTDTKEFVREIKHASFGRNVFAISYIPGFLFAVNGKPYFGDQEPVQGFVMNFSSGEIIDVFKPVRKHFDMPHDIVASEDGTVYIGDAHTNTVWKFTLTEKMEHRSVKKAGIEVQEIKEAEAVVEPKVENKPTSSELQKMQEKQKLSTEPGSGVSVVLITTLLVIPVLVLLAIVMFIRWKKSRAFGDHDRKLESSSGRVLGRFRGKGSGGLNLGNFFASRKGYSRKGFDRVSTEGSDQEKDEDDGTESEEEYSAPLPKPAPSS
# Procedure: (§1) Male rats were fasted overnight and anesthetized with ether to obtain blood samples for measuring PAM and PGL activity in serum. Blood (0.5 ml) was collected from the tail vein at different times and spun at 14,000×g for 5 minutes. Serum was collected and stored at −70° C. until assayed. PAM activity was determined based on the procedure disclosed in Katopodis et al. (Biochemistry 30, 6189-6194, 1991). Briefly, 50 μl of serum sample (enzyme source) was added to 200 μl of the assay mixture which contained tripeptide TNP-D-Tyr-Val-Gly as the enzyme substrate (40 μM), copper sulfate (15 μM), L-ascorbate (4 mM) and catalase (1 mg/ml) in MES buffer (100 mM, pH 6.5). After a 30 minute incubation period at 37° C., an aliquot (90 μl) was quenched with 10 μl of HClO4 (3M) and centrifuged at 14,000×g for 5 minutes. A 20 μl aliquot was removed and used to assay for product using reverse phase HPLC at 344 nm on a C8 column with a mobile phase of 56% water/0.1% trifluoroacetic acid/44% acetonitrile at a flow rate of 1.5 mL/min. In this manner, both TNP-D-Tyr-Val-NH2 as well as the TNP-D-Tyr-Val-α-hydroxyGly were quantitated simultaneously. PGL activity was assayed by measuring the conversion of α-hydroxyhippuric acid to benzamide as disclosed in Katopodis and May (Biochemistry 29, 4541-4548, 1990). Briefly, 50 μl of the serum sample was added to 200 μl of a 100 mM MES buffer solution (pH 6.5) containing 2 mM of the enzyme substrate. After incubation for 30 minutes at 37° C., an aliquot of the assay mixture was quenched with 3 M HClO4, centrifuged at 14,000×g and 20 μl used to analyze for benzamide product by HPLC using a C8 reverse phase column. Product detection was performed at 225 nm using a mobile phase of 80% water/0.1% trifluoroacetic acid/20% acetonitrile at a flow rate of 1.5 mL/min. Enzyme activity was expressed as milliunits per milliliter which is the amount of enzyme required to produce one nanomole of product.
# [2] = molecular target: T2, peptidylamidoglycolate lyase (PGL) (Rattus norvegicus, UniProt P14925); experiment: Serum PGL activity after PBA dosing in rats; assay type: in vivo; conditions: 500 mg/kg s.c., 24 hour observation period
# T2 construct: from tissue; host or cells: rat serum (tail vein blood)
# T2 sequence (P14925 36-976): T1 sequence (P14925 36-976)
# Procedure: as §1, with “PGL activity was assayed by measuring the conversion of α-hydroxyhippuric acid to benzamide as disclosed in Katopodis and May (Biochemistry 29, 4541-4548, 1990). Briefly, 50 μl of the serum sample was added to 200 μl of a 100 mM MES buffer solution (pH 6.5) containing 2 mM of the enzyme substrate. After incubation for 30 minutes at 37° C., an aliquot of the assay mixture was quenched with 3 M HClO4, centrifuged at 14,000×g and 20 μl used to analyze for benzamide product by HPLC using a C8 reverse phase column. Product detection was performed at 225 nm using a mobile phase of 80% water/0.1% trifluoroacetic acid/20% acetonitrile at a flow rate of 1.5 mL/min.” left out
# [3] = system: tail withdrawal latency; experiment: Tail-flick response to heat (50° C. water); assay type: in vivo, rat; conditions: s.c., doses up to 750 mg/kg; 15, 30 and 60 minutes post-drug
# Procedure: (§2) The effects of PBA on the perception of pain was evaluated using several different animal models. The spinally-mediated tail-flick response to heat in fasted rats (250-290 g) was used by measuring the withdrawal latency following immersion of the rodent's tail (2″) into hot water (50° C.). PBA at several different dose levels was administered subcutaneously and the time to tail withdrawal was measured at 0, 15, 30 and 60 minutes post-drug administration. The analgesic effects of PBA were also evaluated in fasted mice following the injection of either phenyl-p-quinone or acetylcholine. Male, ND4 Swiss mice (15-20 g) were dosed subcutaneously with PBA or saline followed immediately by the injection of phenyl-p-quinone (2 mg/kg i.p.). After 5 minutes, the number of writhes (abdominal constrictions along with contortion of the trunk and extension of the hindlimbs) was counted over the next 10 minutes. When acetylcholine (6 mg/kg i.p.) was used as the noxious agent, PBA was administered subcutaneously 15 minutes before the administration of the algesic agent. The number of writhes produced was counted over the last 5 minutes following the algesic agent.
# [4] = system: acetylcholine-induced writhing; experiment: Acetylcholine-induced writhing; assay type: in vivo, mice
# Procedure: as §2
# [5] = system: bradykinin edema; experiment: Bradykinin-induced hind paw edema; assay type: in vivo, rat
# Procedure: (§3) Carrageenan, bradykinin and serotonin edemas were induced in anesthetized, male Sprague-Dawley rats (150-175 g) by injecting 0.5 mg (0.05 ml) of carrageenan, 50 μg (0.1 ml) of bradykinin and 20 μg (0.1 ml) of serotonin, respectively, into the subplantar region of the left hind paws the contralateral hind paws received saline only. Hind paw volumes (edema) were measured plethysmographically by displacement of mercury at 0, 1, 2, 3, 4 and 6 hours post administration of carrageenan, 30 minutes after bradykinin and 1 hour after serotonin. Swelling was determined by subtracting the volume (ml) of the right hind . paw from that of the left. PBA was administered subcutaneously 30 minutes before the administration of carrageenan and serotonin and one hour before bradykinin. In those experiments in which PBA was delivered continuously to rats over a 7 day period prior to the administration of carrageenan, ALZET osmotic pumps (Palo Alto, Calif.) were filled with drug and implanted subcutaneously between the scapulae into anesthetized rats.
# [6] = system: carrageenan edema; experiment: Carrageenan-induced hind paw edema; assay type: in vivo, rat; conditions: for inhibition of hind paw edema: 2 hours post-administration
# Procedure: as §3, with “PBA was administered subcutaneously 30 minutes before the administration of carrageenan and serotonin and one hour before bradykinin.” left out
# [7] = system: substance P (SP); experiment: SP levels in hind paw tissue (RIA); assay type: in vivo, rat; conditions: 75 mg/kg/hr for 7 days, prior to carrageenan (time 0)
# Procedure: The effects of PBA on levels of SP were evaluated using a modification of a method previously disclosed in Ahmed et al. (Peptides 15, 317-322, 1994). Briefly, at different times following the administration of carrageenan, hind paw ankle joints were removed, immediately frozen on dry ice and stored at −80° C. until assayed for SP. After the frozen sample was weighed, it was boiled for 7 minutes as a 10% w/v solution of 2M acetic acid in 4% EDTA, pH 3.5, cut into small pieces and boiled for an additional 7 minutes. Samples were then homogenized for 60 seconds in a Brinkmann Polytron (Westbury, N.Y.), sonicated for 30 seconds and centrifuged at 3000×g for 20 minutes. Supernatants were lyophilized and then diluted in radioimmunoassay (RIA) buffer prior to analysis. SP levels were determined from these samples by using a commercially available RIA kit (INCSTAR, Stillwater, Minn.). Initial experiments conducted to insure the specificity of the substance P antibody for SP found the cross-reactivity for the glycine-extended precursor to be 1.7% at concentrations up to 100 nanograms/ml.
# [8] = system: phenyl-p-quinone-induced writhing; experiment: Phenyl-p-quinone-induced writhing; assay type: in vivo, mice
# Procedure: as §2
# [9] = system: serotonin edema; experiment: Serotonin-induced hind paw edema; assay type: in vivo, rat
# Procedure: as §3
# [10] = dose that produced significant inhibition of carrageenan edema
smiles,measurement,setting,value
"O=C(O)C/C=C/c1ccccc1 [PBA, trans-4-phenyl-3-butenoic acid]",serum PAM activity compared to controls,"[1]; 75 mg/kg/hr for 7 days, prior to carrageenan (time 0)",significantly reduced
same,serum PAM activity vs control,"[1]; 500 mg/kg s.c. single dose, after 24 hours",not significantly different from control values
same,dose dependence of inhibition of serum PAM activity,"[1]; 50, 150 and 500 mg/kg, normal rats",dose-related
same,sustained reduction in serum PAM activity,"[1]; continuous release 50 to 100 mg/kg/hr s.c. via osmotic pumps, throughout 7 day dosing period",> 75%
same,inhibition at 500 mg/kg,"[1]; 500 mg/kg s.c. single dose, by 6 hours",43%
same,inhibition at 500 mg/kg,"[1]; 500 mg/kg s.c. single dose, conscious rats, within 1 hour, remained during first 3 hours",> 90%
same,effect on serum PGL activity,[2],no effect
same,effect on time to tail withdrawal,[3],did not have any effect
same,analgesic effect in writhing assay,[4]; 100 mg/kg dose,significant analgesic effect
same,ED50,"[4]; Mus musculus, sc, s.c. 15 minutes before acetylcholine, percentage of animals per group that writhed (all or none)",105 mg/kg
same,Inhibition (%),"[5]; Bradykinin 50 μg, PBA s.c. 1 hour before, measured 30 minutes after",25.6%
same,Hind Paw Volume (mL ± S.E.M.),"[5]; Bradykinin 50 μg, PBA s.c. 1 hour before, measured 30 minutes after, n = 8",0.29 ± 0.04 mL
same,inhibitory activity on edema produced by bradykinin,[5]; [10],lacked significant inhibitory activity
same,inhibition of carrageenan edema,"[6]; 75 mg/kg/hr for 1 week before carrageenan, each time period",significant inhibition
same,activity on carrageenan edema,[6]; 100 mg/kg dose,did not show any activity
same,inhibition of hind paw swelling,"[6]; 100 mg/kg, administered 2 hours after induction of inflammation",only effective at hour 3
same,inhibition of hind paw edema,[6]; 250 mg/kg s.c. 30 minutes before carrageenan,43%
same,inhibition of hind paw swelling,"[6]; 250 mg/kg, administered 2 hours after induction, up to 6 hours post-phlogistic agent",significant inhibition of hind paw swelling
same,inhibition of hind paw edema,[6]; 500 mg/kg s.c. 30 minutes before carrageenan,67%
same,inhibition of hind paw swelling,"[6]; 500 mg/kg, administered 2 hours after induction, up to 6 hours post-phlogistic agent",significant inhibition of hind paw swelling
same,Inhibition (%),"[6]; Carrageenan, PBA s.c. 30 minutes before, measured 2 hours after, P < .05",66.7^b %
same,Hind Paw Volume (mL ± S.E.M.),"[6]; Carrageenan, PBA s.c. 30 minutes before, measured 2 hours after, n = 8",0.31 ± 0.07 mL
same,dose dependence of inhibition of hind paw edema,"[6]; s.c. 30 minutes before carrageenan, at 2 and 3 hours post-administration",dose-related inhibition
same,SP levels in hind paw tissue compared to controls,[7],significantly reduced
same,analgesic effect in writhing assay,[8]; 100 mg/kg dose,significant analgesic effect
same,inhibition of writhing,[8]; 250 mg/kg s.c.,greater than 85%
same,Inhibition (%),"[9]; Serotonin 20 μg, PBA s.c. 30 minutes before, measured 1 hour after",18.5%
same,Hind Paw Volume (mL ± S.E.M.),"[9]; Serotonin 20 μg, PBA s.c. 30 minutes before, measured 1 hour after, n = 8",0.66 ± 0.03 mL
same,inhibitory activity on edema produced by serotonin,[9]; [10],lacked significant inhibitory activity
